Reference: the supplement of paper PMC11451515

How the values were obtained:
Test in all cases: AUC of viability dose-response curve (% viability x log10 dose units); higher = less sensitive
Conditions in all cases: 48 h
SEM cells = tested on: SEM cells
Procedure, shortened: (§1)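 Library compounds in DMSO were applied for 48 h at 37°C at 11 threefold doses (47 μM to 0.79 nM) to medium-adapted leukemia cells in 1536-well plates holding 500 or 1000 cells/well. Luminescence from CellTiter-Glo One was normalised plate by plate against DMSO and cell-free wells. Area under the curve came from trapezoidal integration of a log-logistic fit, after scaling curves that rose above full viability and discarding those that failed quality control. The fit had four parameters and used log10 doses.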

NOMO1 = tested on: NOMO1
Procedure, shortened: as §1

P12-Ichikawa = tested on: P12-Ichikawa
Procedure, shortened: as §1

[1] = RPMI 5 mM glucose + 10% dialyzed FBS

| Compound | AUC of viability dose-response curve (SEM cells; HPLM + 10% dialyzed FBS) | AUC of viability dose-response curve (SEM cells; RPMI 5 mM glucose + 10% FBS) | AUC of viability dose-response curve (SEM cells; [1]) | AUC of viability dose-response curve (NOMO1; HPLM + 10% dialyzed FBS) | AUC of viability dose-response curve (NOMO1; RPMI 5 mM glucose + 10% FBS) | AUC of viability dose-response curve (NOMO1; [1]) | AUC of viability dose-response curve (P12-Ichikawa; HPLM + 10% dialyzed FBS) | AUC of viability dose-response curve (P12-Ichikawa; RPMI 5 mM glucose + 10% FBS) | AUC of viability dose-response curve (P12-Ichikawa; [1]) |
| --- | --- | --- | --- | --- | --- | --- | --- | --- | --- |
| O=C(Nc1ncc(SCCN2CCCC2)s1)[C@]1(c2ccc([S+](=O)([O-])C3CC3)cc2)C[C@H]1C1CCCCC1 | 390 | 461 | 420 | 428 | 451 | 446 | 455 | 459 | 445 |
| Oc1cccc(-c2nc(N3CCOCC3)c3oc4ncccc4c3n2)c1 | 337 | 302 | 312 | 464 | 466 | 459 | 449 | 401 | 430 |
| CN[C@@H]1Cc2cccc3[nH]c(=O)n(c23)C1 | 442 | 454 | 452 | 455 | 450 | 458 | 449 | 445 | 456 |
| Cc1ccc([S+](=O)([O-])Nc2nc3ccccc3nc2Nc2ccc3nsnc3c2)cc1 | 410 | 440 | 409 | 361 | 360 | 365 | 422 | 405 | 438 |
| C[C@]12CC[C@H]3[C@@H](CCC/4=C/C(=O)CC[C@]34C)[C@@H]1CC[C@@H]2O | 467 | 450 | 444 | 463 | 460 | 462 | 468 | 467 | 470 |
| Cc1cc(Nc2nc(N[C@@H](C)c3ccc(F)cc3)c(C#N)cc2F)n[nH]1 | 367 | 368 | 364 | 414 | 362 | 394 | 396 | 399 | 393 |
| NC(=O)C1CCCc2c1[nH]c1ccc(Cl)cc21 (configuration not stated) | 343 | 381 | 365 | 370 | 401 | 404 | 417 | 436 | 421 |
| CN[C@@H](C)C(=O)N[C@H]1CN(C(=O)CC(C)C)CC[C@H]2CC[C@@H](C(=O)NC(c3ccccc3)c3ccccc3)N2C1=O | 431 | 406 | 423 | 317 | 336 | 361 | 411 | 406 | 424 |
| COC[C@H](c1ccc(C(F)(F)F)cc1)N1CCN(C2(C)CCN(C(=O)c3c(C)ncnc3C)CC2)C[C@H]1C.O=C(O)/C=C\C(=O)O | 445 | 410 | 450 | 409 | 411 | 424 | 469 | 454 | 467 |
| CN1CCC[C@@H]1CCO[C@](C)(c1ccccc1)c1ccc(Cl)cc1 | 469 | 472 | 471 | 466 | 461 | 473 | 463 | 467 | 474 |
| O=C(Nc1ncc(-c2cc(C(F)F)nn2-c2c(Cl)cccc2Cl)s1)C1CC1 | 347 | 333 | 340 | 398 | 381 | 370 | 329 | 326 | 345 |
| CN1CCCC(CC1)N2\N=C(CC3=CC=C(Cl)C=C3)/C4=C(C=CC=C4)C2=O (configuration not stated) | 468 | 394 | 464 | 440 | 457 | 461 | 455 | 466 | 461 |
| ClC1=CC\2=C(OC3=C(C=CC=C3)\N=C2N4CCNCC4)C=C1 | 466 | 437 | 467 | 450 | 434 | 437 | 468 | 438 | 462 |
| CCN(C(=O)C/1=C(O)/C2=C(C=CC=C2Cl)N(C)C1=O)C3=CC=CC=C3 | 272 | 258 | 250 | 319 | 306 | 328 | 356 | 322 | 308 |
| CC[C@H](C)C(=O)O[C@H]1C[C@H](O)\C=C2\C=C/[C@H](C)[C@H](CC[C@@H](O)C[C@@H](O)CC(O)=O)[C@@H]12 | 458 | 464 | 470 | 441 | 457 | 462 | 447 | 460 | 464 |
| COCCOc1nc(-c2ccc(Cl)c(Cl)c2)n(-c2ccc(NC(=O)CCl)cc2)n1 | 444 | 430 | 430 | 460 | 408 | 433 | 469 | 450 | 421 |
| CC(/C=C/C(=O)NO)=C\[C@@H](C)C(=O)c1ccc(N(C)C)cc1 | 290 | 295 | 292 | 337 | 339 | 336 | 325 | 315 | 316 |
| Nc1cccc2c1CN([C@H]1CCC(=O)NC1=O)C2=O | 427 | 390 | 450 | 462 | 428 | 466 | 451 | 448 | 449 |
